In patent publication US20130323279A1, “Human Endogenous Retrovirus Polypeptide Compositions and Methods of Use Thereof” (The J. David Gladstone Institutes, priority 2006, published 2013):

Test system: PBMC
Experiment: IFN-γ ELISPOT assay of T cell responses to HERV and HIV-1 peptides
Format: cell-based, Human
Conditions: a study participant whose PBMC were used for the 51Cr release assay
Experimental: HIV-1 positive volunteers were selected for this study. The study was approved by the local institutional review board and subjects were given written informed consent. Studies were performed on cryopreserved PBMC from various patient timepoints.
ELISPOT analysis was performed as previously described^34. Plates were incubated 15-18 hours at 37° C. Equivalent antigen concentrations were used for HIV and HERV peptide response comparisons. Assays were performed with duplicate wells for each condition, expect where cell recovery from archived samples dictated the use of single wells. Plates were counted with an AID ELISPOT reader (Cell Technology,). Spot totals for duplicate wells were averaged, and all spot numbers were normalized to numbers of IFN-γ spot-forming units (SFU) per 1×10^6PBMC. Spot values from media control wells were subtracted to determine responses to each peptide. Any resulting peptide values <0 following media subtraction were set to 0 for further analysis.

Which “response of study participant's PBMC to peptide” value does the source give for IPVHKAHKKQ [HERV-L IQ10] here?
Its value is “responded”.
